Positions of bridges follow the written chain, without caps; N, C: chain ends. Non-standard residues stand in square brackets, D forms with d. Residues, ends and D or L forms follow the SMILES beside them. Trp(1-Me) = Cn1cc(C[C@H](N)C(=O)O)c2ccccc21; 2Nal = N[C@@H](Cc1ccc2ccccc2c1)C(=O)O; Sar = CNCC(=O)O
Columns and labels:
[1] = test system: classical complement pathway; test: In vitro haemolysis assay (inhibition of classical complement pathway); format: cell-based, human; details: Table 3; human serum, sensitized sheep red blood cells; read-out: IC50[nM], in vitro analysis of inhibition of hemolysis
Method in brief: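 Serially diluted compound (9 points) was preincubated 15 min at room temperature with diluted human serum, titrated per batch to give 70-90% maximal haemolysis, in Tris/casein buffer pH 7.4 with Mg2+/Ca2+. Antibody-sensitized sheep erythrocytes were then added for 30 min at 37° C, and the reaction was stopped with EDTA. Haemolysis was read at A405, with IC50 from 4PL fit.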

[2] = Solubility test at 10 mg/mL (visual inspection and light scattering); format: physicochemical; details: for Solubility, Condition 1 Acetate pH 4: 10 mg/mL compound in 100 mM acetate pH 4; for Solubility, Condition 2 Acetate pH 5: 10 mg/mL compound in 100 mM acetate pH 5; for Solubility, Condition 3 Phosphate pH 6: 10 mg/mL compound in 100 mM phosphate pH 6; for Solubility, Condition 4 Phosphate pH 7: 10 mg/mL compound in 100 mM phosphate pH 7; for Solubility, Condition 5 Phosphate pH 7.5: 10 mg/mL compound in 100 mM phosphate pH 7.5

| SMILES | IC50 [1] | Solubility, Condition 1 Acetate pH 4 [2] | Solubility, Condition 2 Acetate pH 5 [2] | Solubility, Condition 3 Phosphate pH 6 [2] | Solubility, Condition 4 Phosphate pH 7 [2] | Solubility, Condition 5 Phosphate pH 7.5 [2] |
| --- | --- | --- | --- | --- | --- | --- |
| CC[C@H](C)[C@@H]1NC(=O)[C@@H](NC(=O)[C@H](Cc2ccc(O)cc2)NC(C)=O)CSSC[C@@H](C(=O)N[C@H](C(=O)NCC(=O)N[C@@H](C)C(=O)N[C@@H](CCC(=O)O)C(=O)N[C@@H](CO)C(N)=O)[C@@H](C)O)NC(=O)[C@H](CCCNC(=N)N)NC(=O)[C@H](Cc2c[nH]cn2)NC(=O)[C@H](CCC(=O)O)NC(=O)CNC(=O)[C@H](Cc2c[nH]c3ccccc23)NC(=O)[C@H](CC(=O)O)NC(=O)[C@H](CCC(N)=O)NC(=O)[C@H](Cc2ccc3ccccc3c2)NC1=O [Compound 65] (Ac-YCI[2Nal]QDWGEHRCTGAES-NH2; disulfide 2-12) | < 100 nM | − (denotes lack of solubility at the given condition, as UV absorbance at 340 nm exceeds 0.1 AU and/or it is visibly turbid or contains particles.) | − (denotes lack of solubility at the given condition, as UV absorbance at 340 nm exceeds 0.1 AU and/or it is visibly turbid or contains particles.) | + (denotes solubility at the given condition, as determined by UV absorbance being less than 0.1 AU at 340 nm and the sample being clear when manually inspected.) | + (denotes solubility at the given condition, as determined by UV absorbance being less than 0.1 AU at 340 nm and the sample being clear when manually inspected.) | + (denotes solubility at the given condition, as determined by UV absorbance being less than 0.1 AU at 340 nm and the sample being clear when manually inspected.) |
| CC[C@H](C)[C@H](NC(=O)[C@H](C)NC(=O)[C@H](CO)NC(=O)CNC(=O)[C@H](CCC(=O)O)NC(C)=O)C(=O)N[C@H]1CSSC[C@@H](C(=O)N(C)CC(=O)N[C@@H](CCC(=O)O)C(N)=O)NC(=O)[C@H](CCCNC(=N)N)NC(=O)[C@H](Cc2c[nH]cn2)NC(=O)[C@H](CCC(=O)O)NC(=O)CNC(=O)[C@H](Cc2c[nH]c3ccccc23)NC(=O)[C@H](CC(=O)O)NC(=O)[C@H](CCC(N)=O)NC(=O)[C@H](Cc2cn(C)c3ccccc23)NC(=O)[C@H]([C@@H](C)CC)NC1=O [Compound 49] (Ac-EGSAICI[Trp(1-Me)]QDWGEHRC[Sar]E-NH2; disulfide 6-16) | < 100 nM | − (denotes lack of solubility at the given condition, as UV absorbance at 340 nm exceeds 0.1 AU and/or it is visibly turbid or contains particles.) | − (denotes lack of solubility at the given condition, as UV absorbance at 340 nm exceeds 0.1 AU and/or it is visibly turbid or contains particles.) | + (denotes solubility at the given condition, as determined by UV absorbance being less than 0.1 AU at 340 nm and the sample being clear when manually inspected.) | + (denotes solubility at the given condition, as determined by UV absorbance being less than 0.1 AU at 340 nm and the sample being clear when manually inspected.) | + (denotes solubility at the given condition, as determined by UV absorbance being less than 0.1 AU at 340 nm and the sample being clear when manually inspected.) |
| CC[C@H](C)[C@@H]1NC(=O)[C@@H](NC(=O)[C@H](Cc2ccccc2)NC(=O)[C@H](C)NC(=O)[C@H](CO)NC(=O)CNC(=O)[C@H](CCC(=O)O)NC(C)=O)CSSC[C@@H](C(=O)N[C@H](C(=O)N[C@@H](CCC(=O)O)C(N)=O)[C@@H](C)O)NC(=O)[C@H](CCCNC(=N)N)NC(=O)[C@H](Cc2c[nH]cn2)NC(=O)[C@H](CCC(=O)O)NC(=O)CNC(=O)[C@H](Cc2c[nH]c3ccccc23)NC(=O)[C@H](CC(=O)O)NC(=O)[C@H](CCC(N)=O)NC(=O)[C@H](Cc2ccc3ccccc3c2)NC1=O [Compound 60] (Ac-EGSAFCI[2Nal]QDWGEHRCTE-NH2; disulfide 6-16) | < 100 nM | − (denotes lack of solubility at the given condition, as UV absorbance at 340 nm exceeds 0.1 AU and/or it is visibly turbid or contains particles.) | − (denotes lack of solubility at the given condition, as UV absorbance at 340 nm exceeds 0.1 AU and/or it is visibly turbid or contains particles.) | + (denotes solubility at the given condition, as determined by UV absorbance being less than 0.1 AU at 340 nm and the sample being clear when manually inspected.) | + (denotes solubility at the given condition, as determined by UV absorbance being less than 0.1 AU at 340 nm and the sample being clear when manually inspected.) | + (denotes solubility at the given condition, as determined by UV absorbance being less than 0.1 AU at 340 nm and the sample being clear when manually inspected.) |
| CC[C@H](C)[C@H](NC(=O)[C@H](C)NC(=O)[C@H](CO)NC(=O)CNC(C)=O)C(=O)N[C@H]1CSSC[C@@H](C(=O)N(C)CC(=O)N[C@@H](CCC(=O)O)C(N)=O)NC(=O)[C@H](CCCNC(=N)N)NC(=O)[C@H](Cc2c[nH]cn2)NC(=O)[C@H](CCC(=O)O)NC(=O)CNC(=O)[C@H](Cc2c[nH]c3ccccc23)NC(=O)[C@H](CC(=O)O)NC(=O)[C@H](CCC(N)=O)NC(=O)[C@H](Cc2c[nH]c3ccccc23)NC(=O)[C@H]([C@@H](C)CC)NC1=O [Compound 40] (Ac-GSAICIWQDWGEHRC[Sar]E-NH2; disulfide 5-15) | < 250 nM | − (denotes lack of solubility at the given condition, as UV absorbance at 340 nm exceeds 0.1 AU and/or it is visibly turbid or contains particles.) | − (denotes lack of solubility at the given condition, as UV absorbance at 340 nm exceeds 0.1 AU and/or it is visibly turbid or contains particles.) | + (denotes solubility at the given condition, as determined by UV absorbance being less than 0.1 AU at 340 nm and the sample being clear when manually inspected.) | + (denotes solubility at the given condition, as determined by UV absorbance being less than 0.1 AU at 340 nm and the sample being clear when manually inspected.) | + (denotes solubility at the given condition, as determined by UV absorbance being less than 0.1 AU at 340 nm and the sample being clear when manually inspected.) |
